pIC50: −log10 of the molar value.

For one assay, the target named is T1, Kynurenine--oxoglutarate transaminase 1 (Homo sapiens, UniProt Q16773).
T1 sequence (Q16773 whole entry): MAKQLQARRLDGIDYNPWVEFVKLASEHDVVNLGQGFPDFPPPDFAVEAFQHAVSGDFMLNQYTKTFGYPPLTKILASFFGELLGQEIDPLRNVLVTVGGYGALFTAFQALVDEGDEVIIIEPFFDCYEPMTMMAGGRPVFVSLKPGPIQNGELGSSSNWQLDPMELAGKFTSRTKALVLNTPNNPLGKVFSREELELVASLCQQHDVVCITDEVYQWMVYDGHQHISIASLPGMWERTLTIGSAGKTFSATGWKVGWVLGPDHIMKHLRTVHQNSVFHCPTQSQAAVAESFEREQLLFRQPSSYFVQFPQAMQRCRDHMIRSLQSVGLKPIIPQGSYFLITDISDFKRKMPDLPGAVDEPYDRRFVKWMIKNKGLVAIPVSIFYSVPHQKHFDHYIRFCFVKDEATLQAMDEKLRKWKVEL
The assay can be described thus: Inhibition of human recombinant KAT1 after 20 mins by RP-HPLC analysis.
The pIC50 is −log10 of the IC50, conventionally taken in molar units. On to `Cc1ccc2[nH]c(C(=O)O)c(CCC(=O)O)c2c1`, for which the negative-log IC50 (pIC50) was below 3.00. Take `CCOC(=O)/C(CCCC(=O)O)=N\Nc1cccc(Cl)c1`: the pIC50 is 4.70.

Consider `CCOC(=O)/C(CCCC(=O)O)=N\Nc1ccc(C)cc1`, for which the pIC50 was 4.48. Same read-out and setting: next, `CCOC(=O)/C(CCCC(=O)O)=N\Nc1ccc(Br)cc1`: 4.68; `O=C(O)CCc1c(C(=O)O)[nH]c2ccc([N+](=O)[O-])cc12`: 3.18. Take `COc1ccc2[nH]c(C(=O)O)c(CCC(=O)O)c2c1`: the pIC50 was below 2.22. Same read-out and setting: next, `CCOC(=O)/C(CCCC(=O)O)=N\Nc1ccc(Cl)cc1`: 4.70. As to `O=C(O)CCc1c(C(=O)O)[nH]c2ccc(Cl)cc12`, the pIC50 was 3.53. On to `CCOC(=O)/C(CCCC(=O)O)=N\Nc1ccc(I)cc1`, for which the pIC50 is 4.47.

`CCOC(=O)/C(CCCC(=O)O)=N\Nc1ccc([N+](=O)[O-])cc1`: the pIC50 was 3.75. In the case of `CCOC(=O)/C(CCCC(=O)O)=N\Nc1ccc(OC)cc1`, the pIC50 was 4.37. On to `O=C(O)CCc1c(C(=O)O)[nH]c2ccc(Br)cc12`, for which the pIC50 is 3.57.

A further assay has as its target T2, Kynurenine--oxoglutarate transaminase 1 (Homo sapiens) (UniProt Q16773).
T2 sequence (whole entry): T1 sequence (Q16773 whole entry)
As to the kind of experiment: Ratio of compound IC50 to indole-3-propionic acid IC50 for human recombinant KAT1.
Regarding `CCOC(=O)/C(CCCC(=O)O)=N\Nc1cccc(Cl)c1`, the Ratio IC50 was 7. As for `CCOC(=O)/C(CCCC(=O)O)=N\Nc1ccc(Cl)cc1`, the Ratio IC50 is 7.
